Source: patent publication US5855906A, “Intravaginal drug delivery devices for the administration of 17β-oestradiol precursors” (priority 1994, dated 1999)
Values after ≈ are worked out from the molar mass of the structure shown.

Key:
[1] = in vitro; conditions: human, blood
[2] = In vitro dissolution: mean daily release from full-length-core rings over up to 90 days in three media; assay type: physicochemical; conditions: for Mean Daily Release: 9 × 54 mm ring, core 141 × 2 mm, 37 °C, N = 4
Text: In all cases the ring geometries comprise a ring of dimensions 9 mm (cross-sectional diameter)×54 mm (outer diameter) and containing a full length core (141 mm) of cross-sectional diameter 2 mm. […] The saline and benzalkonium chloride-containing media were chosen to ensure `sink conditions` in at least one medium for each intravaginal ring. It will be recognised by those skilled in the art that the term `sink conditions` refers to that set of experimental conditions in vitro which effectively simulates the active haemoperfusion that occurs in vivo, and which results in a maximum drug concentration gradient and maximum drug diffusion rate, at any given time, across the aqueous boundary layer. Thus, an in vitro dissolution experiment can be designed such that the solution solubility of the released drug in the dissolution medium is much greater than its bulk concentration in this medium at any given time, for example, by micellar drug solubilisation due to incorporation of a surfactant such as benzalkonium chloride (BKC), at a concentration above its critical micelle concentration. Thus, each ring was suspended by a thread in an individual closed flask containing the dissolution medium, maintained at a constant temperature of 37° C. The contents of the flask were gently agitated in order to prevent the occurrence of a hydrostatic layer on the surface of the ring. After 24 hours, the ring was removed and suspended in a flask of fresh dissolution medium of identical volume by a method identical to that previously described.

[3] = Nominal in vitro daily release from intravaginal rings under sink conditions (1% w/v benzalkonium chloride, 37 °C); assay type: physicochemical; conditions: calculated as anhydrous 17β-oestradiol
Description: The nominal in vitro release rates set out in Table 1 for the rings of Examples 1-5 were determined under sink conditions of 1% (w/v) benzalkonium chloride. These release rates were determined in the following manner.
Each ring (n=4) was suspended in the dissolution medium in an individual flask which is then capped, placed in a suitable oven at 37° C. and shaken. The dissolution medium was changed every 24 hours (±30 minutes). An aliquot of the used dissolution medium was analysed by high performance liquid chromatography (HPLC) using reverse phase packing and UV detection (at 235 nm for 17β-oestradiol-3-acetate and for
. The sensitivity of the original and improved analytical methods is 5 μg/100 ml.

[4] = In vitro release from rings of varying core length and apparent/standard k value (Crank's equation); assay type: physicochemical; parameters: Standard k: unit not given here; conditions: for k: in µg/day/mm; for Mean Daily Release (as precursor): 250 ml 1% (w/v) BKC
Text: Precursor release from a cylindrical device of core design, which comprises a polymer matrix in the form of a core incorporating 17β-oestradiol precursor and a sheath surrounding the core, can be described by Crank's equation: [formula] in which R=precursor release rate (μg/day)
Crank's equation relates the precursor release rate (R), in sink conditions, to the solubility (C2 S) and diffusibility (D) of the precursor in the polymer matrix, its partition characteristics (π) between the polymer matrix and the dissolution medium; and the ring dimensions (l, b, a). For any given precursor in any given polymer matrix, CS, D and π will be constant and can be grouped together to form the composite constant, k:
The k value can be empirically derived using Crank's equation in the following manner: [formula]
The k value is dependent on core length for certain of the 17β-oestradiol precursors (see Example 6 hereinafter). Accordingly, the k value at a core length of 35 mm has been denoted "standard k" value hereinafter.
Intravaginal drug delivery devices in the form of rings were prepared, each with a ring geometry as described in Table 3, by following the General Method of Manufacture set out hereinabove.
The dissolution medium was changed daily, following the protocol set out hereinabove. Mean daily release rates from the second week of dissolution experiments were used to determine the apparent k values presented in Table 3.
It was, therefore, decided to determine k values at a core length of 35 mm and such k values are hereinafter referred to as "standard k" values.
The standard k value was determined from the mean daily release rates observed in Example 6. The dissolution medium of 1.0% (w/v) of an aqueous solution of benzalkonium chloride was used in respect of the various 17β-oestradiol precursors, so as to ensure sink conditions.

[5] = Stability during storage (observed in dissolution samples); conditions: dissolution medium samples
[6] = Aqueous solubility in distilled water at 20 °C; conditions: water
[7] = Silicone solubility at 37 °C in Dow Corning 360 medical fluid; assay type: physicochemical; conditions: organic solvent or mixture, Dow Corning 360 medical fluid, 37 °C, read-out: Silicone solubility
Description: Silicone solubility was determined at 37° C. in Dow Corning (Trade Mark) 360 medical fluid.

[8] = Plasma 17β-oestradiol in post-menopausal women with 60 μg intravaginal ring, 14 days (Example 10); conditions: 60 μg ring, over 14 days

SMILES: CC(=O)Oc1ccc2c(c1)CC[C@@H]1[C@@H]2CC[C@]2(C)[C@@H](O)CC[C@@H]12 [17β-oestradiol-3-acetate]
- half-life [1]: < 1 min
- Mean Daily Release ([2]; 0.133% (w/v) BKC): 700 μg per day
- Mean Daily Release ([2]; 0.9% (w/v) saline): 350 μg per day
- Mean Daily Release ([2]; 1.0% (w/v) BKC): 850 μg per day
- release in vitro from intravaginal rings (in words) ([2]; BKC and saline media, ring geometry of Table 2): substantial release, in both BKC and in saline
- nominal in vitro daily release rate ([3]; "60 μg" ring, core 2×12 mm): 57.5 to 62.5 µg
- nominal in vitro daily release rate ([3]; "120 μg" ring, core 2×24 mm): 115 to 125 µg
- nominal in vitro daily release rate ([3]; "240 μg" ring, core 2×47 mm): 230 to 250 µg
- apparent k value versus core length ([4]; Table 3 rings, 1% (w/v) BKC): varies with core length
- Mean Daily Release ([4]; Table 4, 1.0% (w/v) BKC, core length 35 mm, n = 5): 236.66 µg/day
- Standard k ([4]; Table 4, core length 35 mm, 1.0% (w/v) BKC): 10.017
- k (standard k) ([4]; Table 5, core length 35 mm): 10.017 μg/day/mm
- k ([4]; core length 6 mm, 1% (w/v) BKC): 12.347
- Mean Daily Release (as precursor) ([4]; core length 6 mm, n = 5): 49.25 µg/day
- k ([4]; core length 12 mm, 1% (w/v) BKC): 11.517
- Mean Daily Release (as precursor) ([4]; core length 12 mm, n = 5): 91.88 µg/day
- k ([4]; core length 25 mm, 1% (w/v) BKC): 10.658
- Mean Daily Release (as precursor) ([4]; core length 25 mm, n = 5): 177.15 µg/day
- k ([4]; core length 35 mm, 1% (w/v) BKC): 10.017
- Mean Daily Release (as precursor) ([4]; core length 35 mm, n = 5): 236.66 µg/day
- stability during storage [5]: hydrolysis to 17β-oestradiol during storage
- solubility [6]: 3.8 µg/mL (≈ 12.1 µM)
- solubility [7]: 186 µg/mL (≈ 592 µM)
- mean increase in plasma 17β-oestradiol [8]: 117.98 pmol/L
